A short description of the data set: Solubility test in organic solvents. The class given is physicochemical. Further details: key: X: not dissolved; ◯: partially dissolved; ⊚: completely dissolved. The following applies: 1 mg, room temperature (20 degrees Celsius); for Solubility in methylcyclohexane: methyl cyclohexane. How it is done:
1 mg of Tb(TMHD)3—DMSO, Tb(TMHD)3—MPSO, Tb(TMHD)3—DPSO, Tb(TMHD)3, Tb(TMHD)3—OPNP are each dissolved under room temperature (20 degrees Celsius) in the following organic solvent: dichlormethane, acetonitrile, toluene, ethyl acetate, hexane, methyl cyclohexane methanol, methy ethyl ketone ether.

For `CC(C)(C)C(=O)C=C([O-])C(C)(C)C.CC(C)(C)C(=O)C=C([O-])C(C)(C)C.CC(C)(C)C(=O)C=C([O-])C(C)(C)C.CS(C)=O.[Tb+3]` [Tb(TMHD)3-DMSO, tri(2,2,6,6-tetramethyl-3,5-heptanedionate) Tb(III) dimethyl sulfoxide], the Solubility in acetonitrile entry is “◯”, the Solubility in dichloromethane entry is reported as “⊚”, the Solubility in ether result is on record as “⊚” and the “Solubility in ethyl acetate” value was “⊚”. For the same molecule, the Solubility in hexane result is on record as “⊚”, the Solubility in methanol result is reported as “⊚”, the Solubility in methylcyclohexane result was “⊚” and the “Solubility in methyl ethyl ketone” value was “⊚”. Moreover, the Solubility in toluene entry is “⊚”.

For `CC(C)(C)C(=O)[CH-]C(=O)C(C)(C)C.CC(C)(C)C(=O)[CH-]C(=O)C(C)(C)C.CC(C)(C)C(=O)[CH-]C(=O)C(C)(C)C.[Tb+3]` [Tb(TMHD)3, tris(2,2,6,6-tetramethyl-3,5-heptanedionato) Terbium(III), reference compound], the Solubility in acetonitrile entry is “X”, the Solubility in dichloromethane result is given as “◯”, the Solubility in ether result is “◯” and the “Solubility in ethyl acetate” value is “X”. In addition, the Solubility in hexane result is recorded as “X”, the Solubility in methanol entry is “X”, the Solubility in methylcyclohexane entry was “X” and the “Solubility in methyl ethyl ketone” value is recorded as “X”. Also, the Solubility in toluene entry was “◯”.

“Tris(2,2,6,6-tetramethyl-3,5-heptanedionato) Terbium (III) diphenyl phosphonimide tris-phenyl phosphorane [Tb(TMHD)3-OPNP, reference compound]”: the Solubility in acetonitrile entry is “◯”, the Solubility in dichloromethane entry is “⊚”, the Solubility in ether result is on record as “⊚” and the “Solubility in ethyl acetate” value is recorded as “⊚”. Further, the Solubility in hexane result is “◯”, the Solubility in methanol result is “◯”, the Solubility in methylcyclohexane result is given as “◯” and the “Solubility in methyl ethyl ketone” value was “⊚”. In addition, the Solubility in toluene entry is “⊚”.

As for `CC(C)(C)C(=O)C=C([O-])C(C)(C)C.CC(C)(C)C(=O)C=C([O-])C(C)(C)C.CC(C)(C)C(=O)C=C([O-])C(C)(C)C.CS(=O)c1ccccc1.[Tb+3]` [Tb(TMHD)3-MPSO, tri(2,2,6,6-tetramethyl-3,5-heptanedionate) Tb(III) methyl phenyl sulfoxide], the Solubility in acetonitrile entry is reported as “◯”, the Solubility in dichloromethane entry is “⊚”, the Solubility in ether result was “⊚” and the “Solubility in ethyl acetate” value is recorded as “⊚”. For the same molecule, the Solubility in hexane result was “⊚”, the Solubility in methanol result is given as “⊚”, the Solubility in methylcyclohexane result is reported as “⊚” and the “Solubility in methyl ethyl ketone” value is on record as “⊚”. For the same molecule, the Solubility in toluene result is listed as “⊚”.

In the case of `CC(C)(C)C(=O)C=C([O-])C(C)(C)C.CC(C)(C)C(=O)C=C([O-])C(C)(C)C.CC(C)(C)C(=O)C=C([O-])C(C)(C)C.O=S(c1ccccc1)c1ccccc1.[Tb+3]` [Tb(TMHD)3-DPSO, tri(2,2,6,6-tetramethyl-3,5-heptanedionate) Tb(III) diphenyl sulfoxide], the Solubility in acetonitrile result was “◯”, the Solubility in dichloromethane result was “⊚”, the Solubility in ether result was “⊚” and the “Solubility in ethyl acetate” value was “⊚”. Besides, the Solubility in hexane entry is recorded as “⊚”, the Solubility in methanol result was “⊚”, the Solubility in methylcyclohexane entry is “⊚” and the “Solubility in methyl ethyl ketone” value was “⊚”. For the same molecule, the Solubility in toluene result is “⊚”.

For the origin of these results see patent US6838019B2, “Phosphorescent material and electroluminescent device using thereof” (Ritek Corporation, priority 2001, dated 2005).
